Laboratory results: patent US20100168084A1, “Therapeutic compounds and related methods of use” (priority 2008, published 2010)
Read-outs that look alike come from different tables or passages of the source.

Target: T1, sirtuin protein (Homo sapiens, UniProt Q96EB6)
T1 sequence (Q96EB6 2-747 limits assumed): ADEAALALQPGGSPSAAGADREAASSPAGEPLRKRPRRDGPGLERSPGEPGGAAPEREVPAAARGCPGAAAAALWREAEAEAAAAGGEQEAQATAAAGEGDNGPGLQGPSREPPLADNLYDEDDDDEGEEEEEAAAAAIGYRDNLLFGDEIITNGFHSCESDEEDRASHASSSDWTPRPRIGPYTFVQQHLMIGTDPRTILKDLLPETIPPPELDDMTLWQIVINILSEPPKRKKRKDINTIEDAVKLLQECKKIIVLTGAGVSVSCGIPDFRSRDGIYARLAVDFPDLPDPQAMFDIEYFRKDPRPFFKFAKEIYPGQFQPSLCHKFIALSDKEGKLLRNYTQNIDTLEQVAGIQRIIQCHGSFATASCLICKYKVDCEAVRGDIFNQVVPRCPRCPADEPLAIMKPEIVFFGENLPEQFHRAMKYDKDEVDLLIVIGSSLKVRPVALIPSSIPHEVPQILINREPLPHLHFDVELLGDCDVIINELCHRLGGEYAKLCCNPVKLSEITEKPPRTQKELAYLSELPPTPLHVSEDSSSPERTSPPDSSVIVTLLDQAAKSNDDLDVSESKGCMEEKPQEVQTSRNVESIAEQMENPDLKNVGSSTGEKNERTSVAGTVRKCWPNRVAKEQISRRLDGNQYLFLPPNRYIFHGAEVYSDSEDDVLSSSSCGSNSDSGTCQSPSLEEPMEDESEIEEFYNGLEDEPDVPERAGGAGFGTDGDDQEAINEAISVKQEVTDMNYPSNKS
Assay: MS assay (IC50 MS ASSAY / ED50 MS / FOLD ACTIVATION MS)
Format: biochemical
Parameters: scale not given here

[1] = MS assay, class symbols A′, A, B, D, NA, legend not given
[2] = Table 4, class symbols A′, A, B, D, NA, legend not given
[3] = class symbols (A′, A, B, D, NA), no legend given

CN(C)c1cccc(C(=O)Nc2cccc(-c3nc4cnccc4s3)c2)c1 [Compound 402]
A′: ED50 MS ASSAY [1] | ED50 MS ASSAY (Table 4) | ED50 MS ASSAY [2]

CN(C)c1ccc(C(=O)Nc2cccc(-c3nc4cnccc4s3)c2)cc1 [Compound 403]
A′: ED50 MS ASSAY [1] | ED50 MS ASSAY (Table 4) | ED50 MS ASSAY [2]

COc1cc(OC)cc(C(=O)Nc2ccccc2-c2nc3cnccc3o2)c1 [Compound 404]
A′: ED50 MS ASSAY [1] | ED50 MS ASSAY (Table 4) | ED50 MS ASSAY [2]

COc1cc(C(=O)Nc2ccccc2-c2nc3cnccc3o2)cc(OC)c1OC [Compound 405]
A′: ED50 MS ASSAY [1] | ED50 MS ASSAY (Table 4) | ED50 MS ASSAY [2]

CN(C)c1cccc(C(=O)Nc2ccccc2-c2nc3cnccc3o2)c1 [Compound 406]
A′: ED50 MS ASSAY [1] | ED50 MS ASSAY (Table 4) | ED50 MS ASSAY [2]

CN(C)c1ccc(C(=O)Nc2ccccc2-c2nc3cnccc3o2)cc1 [Compound 407]
A′: ED50 MS ASSAY [1] | ED50 MS ASSAY (Table 4) | ED50 MS ASSAY [2]

COc1ccc(C(=O)Nc2ccc(-c3nc4cnccc4o3)s2)cc1OC [Compound 423]
A′: ED50 MS ASSAY [1] | ED50 MS ASSAY (Table 4) | ED50 MS ASSAY [2]

COc1cc(C(=O)Nc2ccc(-c3nc4cnccc4o3)s2)cc(OC)c1OC [Compound 426]
A′: ED50 MS ASSAY [1] | ED50 MS ASSAY (Table 4) | ED50 MS ASSAY [2]

CN(C)c1cccc(C(=O)Nc2ccc(-c3nc4cnccc4o3)s2)c1 [Compound 427]
A′: ED50 MS ASSAY [1] | ED50 MS ASSAY (Table 4) | ED50 MS ASSAY [2]

COc1ccc(C(=O)Nc2cccc(-c3nc4ccncc4o3)c2)c(OC)c1 [Compound 429]
A′: ED50 MS ASSAY [1] | ED50 MS ASSAY (Table 4) | ED50 MS ASSAY [2]

COc1ccc(C(=O)Nc2ccccc2-c2cn3cccnc3n2)cc1OC [Compound 438]
A′: ED50 MS ASSAY [1] | ED50 MS ASSAY (Table 4) | ED50 MS ASSAY [2]

COc1cc(C(=O)Nc2ccccc2-c2cn3cccnc3n2)cc(OC)c1OC [Compound 439]
A′: ED50 MS ASSAY [1] | ED50 MS ASSAY (Table 4) | ED50 MS ASSAY [2]

O=C(Nc1ccccc1-c1cn2c(CN3CCNCC3)csc2n1)c1cnc2ccccc2n1 [Compound 441]
A′: ED50 MS ASSAY [1] | ED50 MS ASSAY (Table 4) | ED50 MS ASSAY [2]

Cc1c(C(=O)Nc2ccccc2-c2cn3c(CN4CCNCC4)csc3n2)oc2ccccc12 [Compound 442]
A′: ED50 MS ASSAY [1] | ED50 MS ASSAY (Table 4) | ED50 MS ASSAY [2]

COc1ccc(C(=O)Nc2ccccc2-c2nc3ccncc3o2)c(OC)c1 [Compound 455]
A′: ED50 MS ASSAY [1] | ED50 MS ASSAY (Table 4) | ED50 MS ASSAY [2]

COc1cc(OC)cc(C(=O)Nc2ccccc2-c2nc3ccncc3o2)c1 [Compound 456]
A′: ED50 MS ASSAY [1] | ED50 MS ASSAY (Table 4) | ED50 MS ASSAY [2]

CN(C)c1cccc(C(=O)Nc2ccccc2-c2nc3ccncc3o2)c1 [Compound 458]
A′: ED50 MS ASSAY [1] | ED50 MS ASSAY (Table 4) | ED50 MS ASSAY [2]

CN(C)c1ccc(C(=O)Nc2ccccc2-c2nc3ccncc3o2)cc1 [Compound 459]
A′: ED50 MS ASSAY [1] | ED50 MS ASSAY (Table 4) | ED50 MS ASSAY (Table 4, class symbols) | ED50 MS ASSAY [2] | ED50 MS ASSAY [3]

Cc1cc(C)cc(C(=O)Nc2ccccc2-c2nc3ncccc3o2)c1 [Compound 481]
A′: ED50 MS ASSAY (Table 4, class symbols)

Cc1cc(C)cc(C(=O)Nc2ccccc2-c2nc3ncccc3o2)c1 [Compound 482]
A′: ED50 MS ASSAY | ED50 MS ASSAY (Table 4) | ED50 MS ASSAY [2] | ED50 MS ASSAY [3]

COc1cc(C(=O)Nc2ccccc2-c2nc3ccccc3[nH]2)ccc1CN1CCOCC1 [Compound 503]
A′: ED50 MS ASSAY | ED50 MS ASSAY (Table 4) | ED50 MS ASSAY (Table 4, class symbols) | ED50 MS ASSAY [2] | ED50 MS ASSAY [3]

COc1ccc(C(=O)Nc2ccc(C)cc2-c2nc3ccccc3[nH]2)cc1OC [Compound 507]
A′: ED50 MS ASSAY | ED50 MS ASSAY (Table 4) | ED50 MS ASSAY (Table 4, class symbols) | ED50 MS ASSAY [2] | ED50 MS ASSAY [3]

O=C(Nc1ccccc1-c1nc2ccccc2[nH]1)c1cnc2ccccc2n1 [Compound 508]
A′: ED50 MS ASSAY | ED50 MS ASSAY (Table 4) | ED50 MS ASSAY (Table 4, class symbols) | ED50 MS ASSAY [2] | ED50 MS ASSAY [3]

O=C(Nc1ccccc1-c1cn2c(CN3CCNCC3)csc2n1)c1c[nH]c2ccccc12 [Compound 510]
A′: ED50 MS ASSAY | ED50 MS ASSAY (Table 4) | ED50 MS ASSAY (Table 4, class symbols) | ED50 MS ASSAY [2] | ED50 MS ASSAY [3]

O=C(Nc1ccccc1-c1cn2c(CN3CCNCC3)csc2n1)c1c[nH]nc1-c1ccccc1 [Compound 512]
A′: ED50 MS ASSAY | ED50 MS ASSAY (Table 4) | ED50 MS ASSAY (Table 4, class symbols) | ED50 MS ASSAY [2] | ED50 MS ASSAY [3]

O=C(Nc1ccccc1-c1cn2cc(CN3CCNCC3)sc2n1)c1cnc2ccccc2n1 [Compound 513]
A′: ED50 MS ASSAY | ED50 MS ASSAY (Table 4) | ED50 MS ASSAY (Table 4, class symbols) | ED50 MS ASSAY [2] | ED50 MS ASSAY [3]

COc1ccc(C(=O)Nc2ccc(-c3nc4cnccc4s3)s2)c(OC)c1 [Compound 515]
A′: ED50 MS ASSAY | ED50 MS ASSAY (Table 4) | ED50 MS ASSAY (Table 4, class symbols) | ED50 MS ASSAY [2] | ED50 MS ASSAY [3]

CN(C)c1cccc(C(=O)Nc2ccc(-c3nc4cnccc4s3)s2)c1 [Compound 518]
A′: ED50 MS ASSAY | ED50 MS ASSAY (Table 4) | ED50 MS ASSAY (Table 4, class symbols) | ED50 MS ASSAY [2] | ED50 MS ASSAY [3]

CN(C)c1ccc(C(=O)Nc2ccc(-c3nc4cnccc4s3)s2)cc1 [Compound 519]
A′: ED50 MS ASSAY | ED50 MS ASSAY (Table 4) | ED50 MS ASSAY (Table 4, class symbols) | ED50 MS ASSAY [2] | ED50 MS ASSAY [3]

COc1cc(C(=O)Nc2ccc(-c3nc4cnccc4s3)s2)cc(OC)c1OC [Compound 520]
A′: ED50 MS ASSAY | ED50 MS ASSAY (Table 4) | ED50 MS ASSAY (Table 4, class symbols) | ED50 MS ASSAY [2] | ED50 MS ASSAY [3]

COc1cc(OC)cc(C(=O)Nc2ccccc2-c2nc3cccnc3[nH]2)c1 [Compound 521]
A′: ED50 MS ASSAY | ED50 MS ASSAY (Table 4) | ED50 MS ASSAY (Table 4, class symbols) | ED50 MS ASSAY [2] | ED50 MS ASSAY [3]

CN(C)c1cccc(C(=O)Nc2ccccc2-c2nc3cccnc3[nH]2)c1 [Compound 524]
A′: ED50 MS ASSAY | ED50 MS ASSAY (Table 4) | ED50 MS ASSAY (Table 4, class symbols) | ED50 MS ASSAY [2] | ED50 MS ASSAY [3]

COc1ccc(C(=O)Nc2ccccc2-c2nc3cccnc3[nH]2)cc1OC [Compound 525]
A′: ED50 MS ASSAY | ED50 MS ASSAY (Table 4) | ED50 MS ASSAY (Table 4, class symbols) | ED50 MS ASSAY [2] | ED50 MS ASSAY [3]

O=C(Nc1ccccc1-c1nc2cccnc2[nH]1)c1ccc(N2CCOCC2)cc1 [Compound 526]
A′: ED50 MS ASSAY | ED50 MS ASSAY (Table 4) | ED50 MS ASSAY (Table 4, class symbols) | ED50 MS ASSAY [2] | ED50 MS ASSAY [3]
